Measurements published in patent US9822130B2, “Triazolo-pyrazinyl derivatives useful as soluble guanylate cyclase activators” (Merck Sharp & Dohme Corp., priority 2014, dated 2017).

target: T1, sGC α1/β1 heterodimer stably expressed in CHO-K1 cell line (CHO-K1/sGC) (Homo sapiens, UniProt Q02108+Q02153); experiment: Cell-based sGC Functional Assay (CASA Assay), cGMP generation; details: CHO-K1/sGC cells, 1 hr at 37° C., cGMP by HTRF, 4P fit; presence or absence of 1 μM DETA-NO not given; read-out: IP (nM) (inflection point)
T1 construct: expressed in transfected cells
T1 sequence (Q02108 1-690): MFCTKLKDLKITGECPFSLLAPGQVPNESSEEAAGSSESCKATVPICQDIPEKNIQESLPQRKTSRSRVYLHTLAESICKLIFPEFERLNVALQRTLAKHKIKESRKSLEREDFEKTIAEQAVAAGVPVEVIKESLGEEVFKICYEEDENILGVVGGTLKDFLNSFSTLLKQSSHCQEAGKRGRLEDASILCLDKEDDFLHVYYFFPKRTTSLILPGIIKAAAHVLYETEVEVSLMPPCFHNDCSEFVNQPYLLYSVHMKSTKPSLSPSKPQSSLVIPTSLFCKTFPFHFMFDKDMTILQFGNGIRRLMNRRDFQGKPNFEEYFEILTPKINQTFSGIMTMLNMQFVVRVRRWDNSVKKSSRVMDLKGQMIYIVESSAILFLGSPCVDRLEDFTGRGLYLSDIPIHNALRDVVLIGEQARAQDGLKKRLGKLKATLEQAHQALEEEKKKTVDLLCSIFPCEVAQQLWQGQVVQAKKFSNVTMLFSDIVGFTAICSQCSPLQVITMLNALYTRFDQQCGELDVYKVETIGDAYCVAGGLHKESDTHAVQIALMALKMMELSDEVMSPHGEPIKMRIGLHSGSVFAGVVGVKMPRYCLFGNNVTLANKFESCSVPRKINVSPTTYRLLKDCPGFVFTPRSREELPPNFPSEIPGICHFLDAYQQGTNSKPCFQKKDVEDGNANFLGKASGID
T1 sequence (Q02153 1-619): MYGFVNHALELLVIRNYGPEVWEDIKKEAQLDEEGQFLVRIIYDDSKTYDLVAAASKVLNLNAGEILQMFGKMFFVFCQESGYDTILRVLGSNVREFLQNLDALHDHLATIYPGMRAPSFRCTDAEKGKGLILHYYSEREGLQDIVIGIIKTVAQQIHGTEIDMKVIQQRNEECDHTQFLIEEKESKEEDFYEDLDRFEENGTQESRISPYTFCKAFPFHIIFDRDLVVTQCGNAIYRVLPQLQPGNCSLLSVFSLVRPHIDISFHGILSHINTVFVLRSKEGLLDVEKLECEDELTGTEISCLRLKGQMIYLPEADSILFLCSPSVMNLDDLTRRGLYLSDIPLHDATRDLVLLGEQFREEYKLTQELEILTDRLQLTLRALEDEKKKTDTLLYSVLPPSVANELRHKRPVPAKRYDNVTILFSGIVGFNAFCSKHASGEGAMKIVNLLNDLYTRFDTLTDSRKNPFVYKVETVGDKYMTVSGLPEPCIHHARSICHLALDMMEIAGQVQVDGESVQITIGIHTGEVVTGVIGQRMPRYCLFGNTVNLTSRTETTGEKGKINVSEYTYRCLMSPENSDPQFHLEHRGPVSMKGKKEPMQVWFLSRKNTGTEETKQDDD
Description: sGC is a heme-containing enzyme that converts GTP to secondary messenger cGMP. Increases in cGMP levels affect several physiological processes including vasorelaxation through multiple downstream pathways. […] Heme-dependent activators (HDAs) preferentially activate sGC containing a ferrous heme group. To determine the effect of sGC activators on enzyme activity, the CASA assay was developed to monitor the generation of cGMP in a cell line that stably expresses the heterodimeric sGC protein.
A CHO-K1 cell line stably expressing the sGC α1/β1 heterodimer was generated using a standard transfection protocol. CHO-K1 cells were transfected with plasmids pIREShyghsGCα1 and pIRESneo-hsGCβ1 simultaneously using FUGENE reagent. Clones that stably express both subunits were selected with hygromycin and neomycin for ˜2 weeks. Clone #7 was chosen for the assay and was designated CHO-K1/sGC. CHO-K1/sGC cells were maintained in F-K12 medium containing 10% heat-inactivated Fetal Bovine Serum (FBS), 100 μg/mL penicillin/streptomycin, 0.5 mg/mL hygromycin and 0.25 mg/mL G418. The cells were then cryopreserved in LN2. On the day of the assay, cells thawed and resuspended in EBSS Assay Buffer (Sigma, E3024) supplemented with 5 mM MgCl2, 10 mM HEPES (4-(2-hydroxyethyl)piperazine-1-ethanesulfonic acid) and 0.05% BSA (bovine serum albumin) (EAB) and cell density was then adjusted to 4×10^5/mL with EAB, IBMX (3-isobutyl-1-methylxanthin, 0.5 mM) was added to inhibit degradation of cGMP. Compounds were diluted from DMSO stock solutions and added to the assay at a final DMSO concentration of 2.5%. Cells were incubated with compounds in the presence and absence of 1 μM of Diethylenetriamine/nitric oxide adduct (DETA-NO; Sigma, 17018) for 1 hr at 37° C. At the end of the incubation period, the reaction was terminated and the cells were lysed with the detection reagents from Cisbio Kits. The level of intracellular cGMP was determined using an HTRF-based assay kit (CisBio, 62GM2PEC), which detects the displacement of a fluorescence labeled cGMP from its specific antibody. The cGMP produced by test compounds was directly compared to the maximum cGMP production (this value was set to equal 100% activation.) of the published sGC-HDA Compound A:
[drawing 300] (Example 1 in WO 2010/065275, published Jun. 10, 2010). The test compounds' activities were then expressed as a percentage of Compound A, the standard in every experiment. This percent activation was calculated either in the presence or absence of DETA-NO which was then plotted. IP and maximum fold induction was derived using ADA analysis software for 4P fit.
The compounds in the Examples of the instant invention had inflection points (IP) less than or equal to 10 μM and more particularly less than or equal to about 1 μM.

| SMILES | EC50 [nM] |
| --- | --- |
| Nc1nc(-c2cn3ncnc3c(CCCC(F)(F)F)n2)nc2c1C(c1ccc(Cl)cn1)(C1CC1)C(=O)N2 (centres unmarked) [Example 27A, 4-amino-5-(5-chloropyridin-2-yl)-5-cyclopropyl-2-(8-(4,4,4-trifluorobutyl)-[1,2,4]triazolo[1,5-a]pyrazin-6-yl)-5H-pyrrolo[2,3-d]pyrimidin-6(7H)-one] | 278 |
| CC1(c2ccc(Cl)c(F)c2)C(=O)Nc2nc(-c3cn4ncnc4c(CCCC(F)(F)F)n3)nc(N)c21 (centres unmarked) [Example 28B, 4-amino-5-(4-chloro-3-fluorophenyl)-5-methyl-2-(8-(4,4,4-trifluorobutyl)-[1,2,4]triazolo[1,5-a]pyrazin-6-yl)-5H-pyrrolo[2,3-d]pyrimidin-6(7H)-one] | 20 |
| CC1(c2ccc(Cl)cc2)C(=O)Nc2nc(-c3cn4ncnc4c(CCCC(F)(F)F)n3)nc(N)c21 (centres unmarked) [Example 29A, 4-amino-5-(4-chlorophenyl)-5-methyl-2-(8-(4,4,4-trifluorobutyl)-[1,2,4]triazolo[1,5-a]pyrazin-6-yl)-5H-pyrrolo[2,3-d]pyrimidin-6(7H)-one] | 11.4 |
| Nc1nc(-c2cn3ncnc3c(CCCC(F)(F)F)n2)nc2c1C(c1ccc(F)cc1)(C1CC1)C(=O)N2 (centres unmarked) [Example 30B, 4-amino-5-cyclopropyl-5-(4-fluorophenyl)-2-(8-(4,4,4-trifluorobutyl)-[1,2,4]triazolo[1,5-a]pyrazin-6-yl)-5H-pyrrolo[2,3-d]pyrimidin-6(7H)-one] | 36.7 |
| Nc1nc(-c2cn3ncnc3c(CCCC(F)(F)F)n2)nc2c1C(c1ccc(F)cn1)(C1CC1)C(=O)N2 (centres unmarked) [Example 34A, 4-amino-5-cyclopropyl-5-(5-fluoropyridin-2-yl)-2-(8-(4,4,4-trifluorobutyl)-[1,2,4]triazolo[1,5-a]pyrazin-6-yl)-5H-pyrrolo[2,3-d]pyrimidin-6(7H)-one] | 428 |
| CC1(c2ccccn2)C(=O)Nc2nc(-c3cn4ncnc4c(CCCC(F)(F)F)n3)nc(N)c21 (centres unmarked) [Example 36B, 4-amino-5-methyl-5-(pyridin-2-yl)-2-(8-(4,4,4-trifluorobutyl)-[1,2,4]triazolo[1,5-a]pyrazin-6-yl)-5H-pyrrolo[2,3-d]pyrimidin-6(7H)-one] | 56.5 |
| CC1(c2ccccc2)C(=O)Nc2nc(-c3cn4ncnc4c(CCCC(F)(F)F)n3)nc(N)c21 (centres unmarked) [Example 37B, 4-amino-5-methyl-5-phenyl-2-(8-(4,4,4-trifluorobutyl)-[1,2,4]triazolo[1,5-a]pyrazin-6-yl)-5H-pyrrolo[2,3-d]pyrimidin-6(7H)-one] | 11.5 |
| CC1(c2ccc(C(F)F)cn2)C(=O)Nc2nc(-c3cn4ncnc4c(CCCC(F)(F)F)n3)nc(N)c21 (centres unmarked) [Example 43B, 4-amino-5-(5-(difluoromethyl)pyridin-2-yl)-5-methyl-2-(8-(4,4,4-trifluorobutyl)-[1,2,4]triazolo[1,5-a]pyrazin-6-yl)-5H-pyrrolo[2,3-d]pyrimidin-6(7H)-one] | 45.6 |

More lines, in order of falling EC50, values ahead:

| EC50 [nM] | SMILES |
| --- | --- |
| 416 | Nc1nc(-c2cn3ncnc3c(CCCC(F)(F)F)n2)nc2c1C(c1ccc(C(F)(F)F)cc1)(C1CC1)C(=O)N2 (centres unmarked) [Example 35A, 4-amino-5-cyclopropyl-2-(8-(4,4,4-trifluorobutyl)-[1,2,4]triazolo[1,5-a]pyrazin-6-yl)-5-(4-(trifluoromethyl)phenyl)-5H-pyrrolo[2,3-d]pyrimidin-6(7H)-one] |
| 98.9 | COc1ccc(C2(C)C(=O)Nc3nc(-c4cn5ncnc5c(CCCC(F)(F)F)n4)nc(N)c32)nc1 (centres unmarked) [Example 40A, 4-amino-5-(5-methoxypyridin-2-yl)-5-methyl-2-(8-(4,4,4-trifluorobutyl)-[1,2,4]triazolo[1,5-a]pyrazin-6-yl)-5H-pyrrolo[2,3-d]pyrimidin-6(7H)-one] |
| 77.4 | Nc1nc(-c2cn3ncnc3c(CCCC(F)(F)F)n2)nc2c1C(c1ccc(F)c(F)c1)(C1CC1)C(=O)N2 (centres unmarked) [Example 32A, 4-amino-5-cyclopropyl-5-(3,4-difluorophenyl)-2-(8-(4,4,4-trifluorobutyl)-[1,2,4]triazolo[1,5-a]pyrazin-6-yl)-5H-pyrrolo[2,3-d]pyrimidin-6(7H)-one] |
| 27.8 | Nc1nc(-c2cn3ncnc3c(CCCC(F)(F)F)n2)nc2c1C(c1ncc(Cl)cn1)(C1CC1)C(=O)N2 (centres unmarked) [Example 41A, 4-amino-5-(5-chloropyrimidin-2-yl)-5-cyclopropyl-2-(8-(4,4,4-trifluorobutyl)-[1,2,4]triazolo[1,5-a]pyrazin-6-yl)-5H-pyrrolo[2,3-d]pyrimidin-6(7H)-one] |
| 20.1 | COc1ccc(C2(C3CC3)C(=O)Nc3nc(-c4cn5ncnc5c(CCCC(F)(F)F)n4)nc(N)c32)nc1 (centres unmarked) [Example 39A, 4-amino-5-cyclopropyl-5-(5-methoxypyridin-2-yl)-2-(8-(4,4,4-trifluorobutyl)-[1,2,4]triazolo[1,5-a]pyrazin-6-yl)-5H-pyrrolo[2,3-d]pyrimidin-6(7H)-one] |
| 13 | Nc1nc(-c2cn3ncnc3c(CCCC(F)(F)F)n2)nc2c1C(c1ccc(Cl)cc1)(C1CC1)C(=O)N2 (centres unmarked) [Example 31B, 4-amino-5-(4-chlorophenyl)-5-cyclopropyl-2-(8-(4,4,4-trifluorobutyl)-[1,2,4]triazolo[1,5-a]pyrazin-6-yl)-5H-pyrrolo[2,3-d]pyrimidin-6(7H)-one] |
| 11 | CC1(c2ccc(F)c(F)c2)C(=O)Nc2nc(-c3cn4ncnc4c(CCCC(F)(F)F)n3)nc(N)c21 (centres unmarked) [Example 38B, 4-amino-5-(3,4-difluorophenyl)-5-methyl-2-(8-(4,4,4-trifluorobutyl)-[1,2,4]triazolo[1,5-a]pyrazin-6-yl)-5H-pyrrolo[2,3-d]pyrimidin-6(7H)-one] |
| 8.7 | CC1(c2ccc(F)c(Cl)c2)C(=O)Nc2nc(-c3cn4ncnc4c(CCCC(F)(F)F)n3)nc(N)c21 (centres unmarked) [Example 42B, 4-amino-5-(3-chloro-4-fluorophenyl)-5-methyl-2-(8-(4,4,4-trifluorobutyl)-[1,2,4]triazolo[1,5-a]pyrazin-6-yl)-5H-pyrrolo[2,3-d]pyrimidin-6(7H)-one] |
| 5.6 | Nc1nc(-c2cn3ncnc3c(CCCC(F)(F)F)n2)nc2c1C(c1ccc(Cl)c(F)c1)(C1CC1)C(=O)N2 (centres unmarked) [Example 33A, 4-amino-5-(4-chloro-3-fluorophenyl)-5-cyclopropyl-2-(8-(4,4,4-trifluorobutyl)-[1,2,4]triazolo[1,5-a]pyrazin-6-yl)-5H-pyrrolo[2,3-d]pyrimidin-6(7H)-one] |
